{"source": "patent US20230255974A1", "about": "“USE OF THYROMIMETICS FOR THE TREATMENT OF CANCER” (THE UNIVERSITY OF VERMONT, priority 2020, published 2023)", "key": {"[1]": {"test_system": "SW1736 cells (SW-EV, SW-TRβ)", "assay": "Migration (wound healing) assay, T3", "assay_type": "cell-based, human", "settings": "SW-TRβ treated with T3 vs SW-EV", "experimental": "Migration Assay. Cell migration was determined by wound healing assay. Cells were plated and allowed to grow to 100% confluency. Two hours prior to scratching, cells were treated with […] Mitomycin C. A scratch was performed with a P1000 pipette tip and debris was washed away with PBS. Migration media was supplemented with 10^−8 M T3. Images were obtained at 0, 24, 48, and 72 hours. Wound closure was measured using ImageJ macro “Wound Healing Tool” (http://dev.mri.cnrs.fr/projects/imagej-macros/wiki/Wound_Healing_Tool). Values were normalized so that the initial scratch was 0% closure."}, "[2]": {"test_system": "SW1736 cells (SW-EV, SW-TRβ)", "assay": "RNA-seq gene expression in SW-EV and SW-TRβ", "assay_type": "cell-based, human", "experimental": "RNA-seq Library Construction and Quality Control. 80% confluent monolayers of SW-EV and SW-TRβ cells were hormone starved for 24 hours in phenol red free RPMI with charcoal-stripped fetal bovine serum. 10^−8M T3 was added and incubated for 24 hours prior to sample collection. Total RNA was extracted and purified using RNeasy Plus Kit (Qiagen) according to manufacturer's protocol. Purity of the total RNA samples was assessed via BioAnalyzer (Agilent) and samples with a RIN score >7 were used for library construction. rRNA was depleted using 1 μg of total RNA with the RiboErase kit (KAPA Biosystems). Strand-specific Illumina cDNA libraries were prepared using the KAPA Stranded RNA-Seq library preparation kit with 10 cycles of PCR (KAPA Biosystems). Library quality was assessed by BioAnalyzer (Agilent) to ensure an average library size of 300 bp and the absence of excess adaptors in each sample. RNA-Seq libraries were pooled and sequenced on the Illumina HiSeq 1500 with 50 bp single-end reads. Quality scores across sequenced reads were assessed using FASTQC. […] For alignment and transcript assembly, the sequencing reads were mapped to hg38 using STAR. Sorted reads were counted using HTSeq and differential expression analysis was performed using DESeq2."}}}
{"smiles": "N[C@@H](Cc1cc(I)c(Oc2ccc(O)c(I)c2)c(I)c1)C(=O)O", "note": "[T3, (2S)-2-amino-3-[4-(4-hydroxy-3-iodophenoxy)-3,5-diiodophenyl]propanoic acid]", "values": [{"measurement": "scratch closure (AUC)", "setting": "[1]", "result": "significantly reduced scratch closure"}, {"measurement": "expression of epithelial marker CDH1", "setting": "[2]; SW1736-TRβ, T3 treated", "result": "increased expression"}, {"measurement": "expression of mesenchymal marker VIM", "setting": "[2]; SW1736-TRβ, T3 treated", "result": "decreased"}, {"measurement": "expression of cluster 1 genes in the ILK signaling IPA pathway", "setting": "[2]; SW-EV and SW-TRβ, T3", "result": "repressed"}, {"measurement": "thyroid differentiation markers", "setting": "[2]; SW-TRβ, T3 treated", "result": "significantly induced"}, {"measurement": "thyroid differentiation score (TDS)", "setting": "[2]; SW-TRβ, T3 treated", "result": "significantly higher TDS"}, {"measurement": "expression of thyroid-specific cancer stem cell genes ALDH, POU5F1, CD44, FUT4, PROM1", "setting": "[2]; TRβ overexpression and T3, RNA-seq", "result": "significantly reduced expression of the thyroid-specific cancer stem cell genes"}]}
